Test results reported in patent US9301529B2, “Polysubstituted pyridyl pyrazolecarboxamide and preparation method and use thereof” (ZHAOQING ZHENGE BIOLOGICAL TECHNOLOGY CO., LTD, priority 2014, dated 2016).

Legend:
Helicoverpa armigera = test: Determination of activity against Helicoverpa armigera, leaf dipping method (IRAC); format: in vivo; settings: for insecticidal activity (mortality): leaf dipping, Brassica oleracea leaf, 72 hour
Description: Determination of Activity Against Helicoverpa armigera
Leaf dipping method (proposed by Insecticide Resistance Action Committee, IRAC) was adopted: a leaf of Brassica oleracea was clamped by a tweezer and dipped into an insecticide solution having a certain concentration to be tested for 3 to 5 seconds, the excessive solution was threw off, one leaf at each time, three leaves for each sample. The leaves were placed onto a treatment paper according to sequence of sample marking and air-dried naturally, then put into a marked straight tube of 10 cm length, […] in, the tube opening was covered by a gauze, and placed into a standard treatment chamber, the result was checked and the mortality was calculated at 72 hour.
(§1) Some of the compounds in Example 1 were used to conduct the test, and a control compound was selected to conduct an indoor insecticidal activity data (%, concentration unit: ppm) determination test under the same condition, the results of the test was shown in Table 2.

Ostrinia furnacalis = test: Determination of activity against Ostrinia furnacalis, leaf dipping method; format: in vivo; settings: for insecticidal activity (mortality): leaf dipping, Brassica oleracea leaf, 72 hours
Description: Determination of Activity Against Ostrinia furnacalis
Leaf dipping method was adopted, a leaf of Brassica oleracea was clamped by a tweezer, and dipped in insecticide solution having a certain concentration for 3 to 5 seconds, the excessive solution was threw off, one leaf at each time, and three leaves for each sample. The leaves were placed onto a treatment paper according to the sequence of sample marking and air-dried naturally, then put into a marked straight tube of 10 cm length, and 30 Ostrinia furnacalis larvae being […] were place in, the tube opening was covered by a gauze, and placed in a standard treatment chamber, the result was checked and the mortality was calculated at 72 hours.
as §1

[1] = Helicoverpa armigera, in Brassica oleracea, foliar, 72 h, read-out: insecticidal activity (mortality)
[2] = Ostrinia furnacalis, in Brassica oleracea, foliar, 72 h, read-out: insecticidal activity (mortality)

CC(C)(C)NC(=O)c1cc(Cl)cc(Cl)c1NC(=O)c1cc(Br)nn1-c1ncccc1Cl [Compound I-24, 1-(3-chloropyridine-2-yl)-3-bromo-N-(2,4-dichloro-6-tert-butylaminocarbonyl)phenyl-1H-pyrazole-5-formamide] was tested, and the “insecticidal activity (mortality)” value (Helicoverpa armigera; 0.016 ppm) was 60%, the “insecticidal activity (mortality)” value (Helicoverpa armigera; 0.031 ppm) was 80% and the “insecticidal activity (mortality)” value (Helicoverpa armigera; 0.0625 ppm) was 100%. For the same compound, the “insecticidal activity (mortality)” value (Helicoverpa armigera; 0.125 ppm) was 100%, the “insecticidal activity (mortality)” value (Helicoverpa armigera; 0.25 ppm) was 100% and the “insecticidal activity (mortality)” value (Helicoverpa armigera; 0.5 ppm) was 100%. The “insecticidal activity (mortality)” value (Ostrinia furnacalis; 0.031 ppm) was 100%, the “insecticidal activity (mortality)” value (Ostrinia furnacalis; 0.0625 ppm) was 100% and the “insecticidal activity (mortality)” value (Ostrinia furnacalis; 0.125 ppm) was 100%. The “insecticidal activity (mortality)” value (Ostrinia furnacalis; 0.25 ppm) was 100% and the “insecticidal activity (mortality)” value (Ostrinia furnacalis; 0.5 ppm) was 100%.
For CNC(=O)c1cc(Cl)cc(C)c1NC(=O)c1cc(Br)nn1-c1ncccc1Cl [KC], the mortality at 0.016 ppm (Helicoverpa armigera; [1]) was 0%, the mortality at 0.031 ppm (Helicoverpa armigera; [1]) was 0% and the mortality at 0.0625 ppm (Helicoverpa armigera; [1]) was 30%. It also gave a mortality at 0.125 ppm (Helicoverpa armigera; [1]) of 55%, a mortality at 0.25 ppm (Helicoverpa armigera; [1]) of 70% and a mortality at 0.5 ppm (Helicoverpa armigera; [1]) of 85%. For the same compound, the mortality at 0.016 ppm (Ostrinia furnacalis; [2]) was 0%, the mortality at 0.031 ppm (Ostrinia furnacalis; [2]) was 30% and the mortality at 0.0625 ppm (Ostrinia furnacalis; [2]) was 55%. The mortality at 0.125 ppm (Ostrinia furnacalis; [2]) was 75%, the mortality at 0.25 ppm (Ostrinia furnacalis; [2]) was 100% and the mortality at 0.5 ppm (Ostrinia furnacalis; [2]) was 100%.
